“Also recorded” adds a separate entry of the source.
What was measured:
[1] = tail-clip hemostasis experiments in mice; format: in vivo
[2] = target: FXa-antithrombin III (FXa-ATIII) complex (Homo sapiens, UniProt P00742); assay: FXa-antithrombin III complex formation in FX deficient plasma (ELISA); format: biochemical; conditions: 100 nM or 1 μM rivaroxaban
[3] = cited from earlier work
[4] = test system: normal human platelet poor plasma (PPP); assay: thrombin generation assay (TGA) in platelet poor plasma; format: biochemical
[5] = test system: citrated human blood; assay: rotational thromboelastography (ROTEM) in whole blood; conditions: 250 nM apixaban alone vs untreated (PBS) control blood
Protocol: FIG. 2 provides a graph of rotational thromboelastograms performed using freshly collected, citrated human blood treated with 25 μg/mL corn trypsin inhibitor (to minimize variation in samples). […] Phosphate buffered saline (PBS) was added to one sample instead of apixaban […].
A coagulation initiator is added, and as the blood clots, rotation of the pin is restricted, which is detected optically by the instrument.

FXa-antithrombin III (FXa-ATIII) complex, sequence (P00742 235-488 limits assumed): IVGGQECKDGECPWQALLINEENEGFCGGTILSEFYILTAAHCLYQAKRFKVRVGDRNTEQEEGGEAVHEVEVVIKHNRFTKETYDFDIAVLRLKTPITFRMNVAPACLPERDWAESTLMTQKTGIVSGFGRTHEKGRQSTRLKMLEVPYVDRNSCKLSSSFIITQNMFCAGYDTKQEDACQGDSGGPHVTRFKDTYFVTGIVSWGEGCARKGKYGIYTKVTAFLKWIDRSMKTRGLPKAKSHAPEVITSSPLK
FXa-antithrombin III (FXa-ATIII) complex, sequence (P00742 41-179 limits assumed): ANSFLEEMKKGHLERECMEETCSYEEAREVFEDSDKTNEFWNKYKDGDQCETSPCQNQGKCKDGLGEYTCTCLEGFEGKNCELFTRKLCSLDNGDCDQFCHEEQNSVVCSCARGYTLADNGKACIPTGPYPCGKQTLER

| effect on FXa-ATIII complex formation [2] | Structure (SMILES) | blood loss ([1]; 50 mg/kg rivaroxaban alone) | effect on blood loss ([1]; rivaroxaban alone) | plasma protein binding [3] | peak thrombin generation ([4]; 500 nM rivaroxaban alone) | effect on thrombin generation ([4]; 2.5 μM rivaroxaban alone) | effect on thrombin generation ([4]; inhibitor alone added to normal human plasma (PPP)) | effect on clot time [5] | effect on clot time ([5]; listed as Apixaban) |
| --- | --- | --- | --- | --- | --- | --- | --- | --- | --- |
| dose-dependently inhibited | O=C(NC[C@H]1CN(c2ccc(N3CCOCC3=O)cc2)C(=O)O1)c1ccc(Cl)s1 [rivaroxaban] | 217 % of normal | dose-dependently increased blood loss | heavily protein-bound | ~10 % of normal | completely abrogated thrombin generation | profoundly decrease thrombin generation; also recorded: dose-dependently inhibited thrombin generation |  |  |
|  | COc1ccc(-n2nc(C(N)=O)c3c2C(=O)N(c2ccc(N4CCCCC4=O)cc2)CC3)cc1 [apixaban] |  |  | heavily protein-bound |  |  |  | prolonged the clot time | prolonged the clot time substantially |
